Assay results: patent US9725468B2, “C5-spiro iminothiazine dioxides as BACE inhibitors, compositions, and their use” (Merck Sharp & Dohme Corp., priority 2013, dated 2017)

What was measured:
[1] = target: soluble human BACE1 catalytic domain (Homo sapiens, UniProt P56817); assay: BACE1 HTRF FRET Assay; assay type: biochemical; conditions: Ki calculated from IC50 using the Cheng-Prusoff equation; QSY7-APPswe-Eu substrate 200 nM, pH 5.0
From the text: Na^+-Acetate pH 5.0; 1% Brij-35; Glycerol; Dimethyl Sulfoxide (DMSO); Recombinant human soluble BACE1 catalytic domain (>95% pure); APP Swedish mutant peptide substrate (QSY7-APP^swe-Eu): QSY7-EISEVNLDAEFC-Europium-amide.
A homogeneous time-resolved FRET assay can be used to determine IC50 values for inhibitors of the soluble human BACE1 catalytic domain. This assay monitors the increase of 620 nm fluorescence that resulted from BACE1 cleavage of an APPswedish APP^swe mutant peptide FRET substrate (QSY7-EISEVNLDAEFC-Europium-amide). This substrate contains an N-terminal QSY7 moiety that serves as a quencher of the C-terminal Europium fluorophore (620 nm Em). In the absence of enzyme activity, 620 nm fluorescence is low in the assay and increased linearly over 3 hours in the presence of uninhibited BACE1 enzyme. Inhibition of BACE1 cleavage of the QSY7-APP^swe-Eu substrate by inhibitors is manifested as a suppression of 620 nm fluorescence.
Varying concentrations of inhibitors at 3× the final desired concentration in a volume of 10 ul are preincubated with purified human BACE1 catalytic domain (3 nM in 10 μl) for 30 minutes at 30° C. in reaction buffer containing 20 mM Na-Acetate pH 5.0, 10% glycerol, 0.1% Brij-35 and 7.5% DSMO. Reactions are initiated by addition of 10 μl of 600 nM QSY7-APP^swe-Eu substrate (200 nM final) to give a final reaction volume of 30 μl in a 384 well Nunc HTRF plate. The reactions are incubated at 30° C. for 1.5 hours. The 620 nm fluorescence is then read on a Rubystar HTRF plate reader (BMG Labtechnologies) using a 50 millisecond delay followed by a 400 millisecond acquisition time window. Inhibitor IC50 values are derived from non-linear regression analysis of concentration response curves. Ki values are then calculated from IC50 values using the Cheng-Prusoff equation using a previously determined […] for the QSY7-APP^swe-Eu substrate at BACE1.

[2] = target: T1, purified human autoBACE-2 (Homo sapiens, UniProt Q9Y5Z0); assay: BACE-2 Assay (BACE-HTRF assay); assay type: biochemical; conditions: Ki calculated from IC50 using the Cheng-Prusoff equation; QSY7-EISEVNLDAEFC-Eu-amide substrate 200 nM, pH 5.0; read-out: BACE2 Ki
T1 sequence (Q9Y5Z0 63-473 limits assumed): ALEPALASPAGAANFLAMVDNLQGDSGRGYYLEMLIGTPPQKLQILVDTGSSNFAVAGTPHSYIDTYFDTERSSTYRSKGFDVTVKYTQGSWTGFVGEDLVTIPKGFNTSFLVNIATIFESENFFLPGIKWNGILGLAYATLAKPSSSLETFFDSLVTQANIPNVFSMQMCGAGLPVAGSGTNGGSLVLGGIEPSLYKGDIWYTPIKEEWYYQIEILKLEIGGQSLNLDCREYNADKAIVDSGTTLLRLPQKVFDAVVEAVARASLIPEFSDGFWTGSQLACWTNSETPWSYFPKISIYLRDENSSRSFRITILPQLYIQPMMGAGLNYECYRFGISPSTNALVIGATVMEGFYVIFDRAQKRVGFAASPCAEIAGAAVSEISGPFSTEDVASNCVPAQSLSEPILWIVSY
Procedure: Inhibitor ICsos at purified human autoBACE-2 are determined in a time-resolved endpoint proteolysis assay that measures hydrolysis of the QSY7-EISEVNLDAEFC-Eu-amide FRET peptide substrate (BACE-HTRF assay). BACE-mediated hydrolysis of this peptide results in an increase in relative fluorescence (RFU) at 620 nm after excitation with 320 nm light. Inhibitor compounds, prepared at 3× the desired final concentration in 1×BACE assay buffer (20 mM sodium acetate pH 5.0, 10% glycerol, 0.1% Brij-35) supplemented with 7.5% DMSO are preincubated with an equal volume of autoBACE-2 enzyme diluted in 1×BACE assay buffer (final enzyme concentration 1 nM) in black 384-well NUNC plates for 30 minutes at 30° C. The assay is initiated by addition of an equal volume of the QSY7-EISEVNLDAEFC-Eu-amide substrate (200 nM final concentration, […]) prepared in 1×BACE assay buffer supplemented with 7.5% DMSO and incubated for 90 minutes at 30° C. DMSO is present at 5% final concentration in the assay. Following laser excitation of sample wells at 320 nm, the fluorescence signal at 620 nm is collected for 400 ms following a 50 μs delay on a RUBYstar HTRF plate reader (BMG Labtechnologies). Raw RFU data is normalized to maximum (1.0 nM BACE/DMSO) and minimum (no enzyme/DMSO) RFU values. IC50s are determined by nonlinear regression analysis (sigmoidal dose response, variable slope) of percent inhibition data with minimum and maximum values set to 0 and 100 percent respectively. Similar IC50s are obtained when using raw RFU data. The Ki values are calculated from the IC50 using the Cheng-Prusoff equation.

soluble human BACE1 catalytic domain, sequence (P56817 75-416 limits assumed): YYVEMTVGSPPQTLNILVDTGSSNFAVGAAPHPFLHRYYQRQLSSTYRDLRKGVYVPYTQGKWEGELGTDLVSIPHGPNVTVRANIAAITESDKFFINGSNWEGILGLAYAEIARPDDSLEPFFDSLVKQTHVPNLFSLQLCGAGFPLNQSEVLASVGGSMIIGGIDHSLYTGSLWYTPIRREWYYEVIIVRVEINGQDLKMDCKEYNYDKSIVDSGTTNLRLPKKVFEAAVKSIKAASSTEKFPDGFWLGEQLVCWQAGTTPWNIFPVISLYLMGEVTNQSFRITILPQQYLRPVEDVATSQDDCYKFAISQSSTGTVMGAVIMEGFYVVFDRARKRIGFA

Ki [1] | Ki [2] | SMILES
17 nM | 1 nM | Cn1cc(Cl)c(C(=O)Nc2ccc3c(c2)[C@]2(CCC3)CS(=O)(=O)C(C)(C)C(=N)N2)n1 [Example G-6]
140 nM | 156 nM | CC1(C)C(=N)N[C@@]2(CCCc3ccc(NC(=O)c4cnc(OCCF)cn4)cc32)CS1(=O)=O [Example G-17]
45 nM | 98 nM | CC1(C)C(=N)N[C@@]2(CCOc3ccc(NC(=O)c4cnc(OCCF)cn4)cc32)CS1(=O)=O [Example C-12]
503 nM | 74 nM | CC1(C)C(=N)N[C@@]2(CCCc3ccc(NC(=O)c4cc5ccccn5n4)cc32)CS1(=O)=O [Example G-3]
14 nM | 8 nM | CC1(C)C(=N)N[C@@]2(CCOc3ccc(NC(=O)c4ccc(OCF)cn4)cc32)CS1(=O)=O [Example C-13]
55 nM | 7 nM | CC1(C)C(=N)N[C@@]2(CCCc3ccc(NC(=O)c4ccc(F)cn4)cc32)CS1(=O)=O [Example G-14]
556 nM | 2950 nM | CC1(C)C(=N)N[C@@]2(COCc3ccc(NC(=O)c4cn5cc(C#N)ccc5n4)cc32)CS1(=O)=O [Example E-12]
35 nM | 7 nM | CC1(C)C(=N)N[C@@]2(CCCc3ccc(NC(=O)c4cnsn4)cc32)CS1(=O)=O [Example G-2]
19 nM | 2 nM | COc1cnc(C(=O)Nc2ccc3c(c2)[C@]2(CCC3)CS(=O)(=O)C(C)(C)C(=N)N2)c(C)c1 [Example G-8]
3 nM | 1 nM | CC1(C)C(=N)N[C@@]2(CCOc3ccc(NC(=O)c4ccn(C(F)F)n4)cc32)CS1(=O)=O [Example C-1]
64 nM | 17 nM | COc1cnc(C(=O)Nc2ccc3c(c2)[C@]2(CCC3)CS(=O)(=O)C(C)(C)C(=N)N2)c(C)n1 [Example G-9]
107 nM | 98 nM | CC1(C)C(=N)N[C@@]2(CCOc3ccc(NC(=O)c4ncc(C(F)(F)F)cn4)cc32)CS1(=O)=O [Example C-16]
1200 nM | 200 nM | CC1(C)C(=N)N[C@@]2(COCc3ccc(NC(=O)c4cc5ccccn5n4)cc32)CS1(=O)=O [Example E-2]
8 nM | 2 nM | CC1(C)C(=N)N[C@@]2(CCOc3ccc(NC(=O)c4ccc(Cl)cn4)cc32)CS1(=O)=O [Example B-1]
15 nM | 1 nM | Cc1cn(C)nc1C(=O)Nc1ccc2c(c1)[C@]1(CCO2)CS(=O)(=O)C(C)(C)C(=N)N1 [Example C-14]
31 nM | 7 nM | COc1ccc(C(=O)Nc2ccc3c(c2)[C@]2(CCC3)CS(=O)(=O)C(C)(C)C(=N)N2)nc1 [Example G-20]
121 nM | 157 nM | CC1(C)C(=N)N[C@@]2(CCOc3ccc(NC(=O)c4cn5cc(C#N)ccc5n4)cc32)CS1(=O)=O [Example C-8]
4 nM | 12 nM | CC1(C)C(=N)N[C@@]2(CCCc3ccc(NC(=O)c4ccc(C#N)cn4)cc32)CS1(=O)=O [Example G-21]
41 nM | 155 nM | CC1(C)C(=N)N[C@@]2(COCc3ccc(NC(=O)c4ccc(C(F)(F)F)cn4)cc32)CS1(=O)=O [Example E-6]

Ki [1] | Ki [2] | SMILES
326 nM | 443 nM | CC1(C)C(=N)N[C@@]2(COCc3ccc(NC(=O)c4cnc(OCCF)cn4)cc32)CS1(=O)=O [Example E-17]
20 nM | 3 nM | COc1cnc(C(=O)Nc2ccc3c(c2)[C@]2(CCO3)CS(=O)(=O)C(C)(C)C(=N)N2)c(C)c1 [Example C-20]
50 nM | 175 nM | CC1(C)C(=N)N[C@@]2(COCc3ccc(NC(=O)c4ccc(OC(F)(F)F)cn4)cc32)CS1(=O)=O [Example E-3]
4 nM | 1 nM | CC1(C)C(=N)N[C@@]2(CCCc3ccc(NC(=O)c4ccn(C(F)F)n4)cc32)CS1(=O)=O [Example G-4]
3 nM | 5 nM | CC1(C)C(=N)N[C@@]2(CCOc3ccc(NC(=O)c4cnsn4)cc32)CS1(=O)=O [Example C-4]
83 nM | 6 nM | Cc1nc(C(=O)Nc2ccc3c(c2)[C@]2(CCC3)CS(=O)(=O)C(C)(C)C(=N)N2)no1 [Example G-13]
2 nM | 3 nM | Cc1cc(C#N)cnc1C(=O)Nc1ccc2c(c1)[C@]1(CCO2)CS(=O)(=O)C(C)(C)C(=N)N1 [Example C-22]
23 nM | 7 nM | CC1(C)C(=N)N[C@@]2(COCc3ccc(NC(=O)c4ccc(Cl)cn4)cc32)CS1(=O)=O [Example D-1]
11 nM | 2 nM | CC1(C)C(=N)N[C@@]2(CCCc3ccc(NC(=O)c4ncc(Cl)cc4F)cc32)CS1(=O)=O [Example G-1]
644 nM | 512 nM | CC1(C)C(=N)N[C@@]2(COCc3ccc(NC(=O)c4ncc(C(F)(F)F)cn4)cc32)CS1(=O)=O [Example E-1]
8 nM | 22 nM | CC1(C)C(=N)N[C@@]2(CCOc3ccc(NC(=O)c4ccc(OC(F)F)cn4)cc32)CS1(=O)=O [Example C-10]
52 nM | 46 nM | COc1cnc(C(=O)Nc2ccc3c(c2)[C@]2(CCO3)CS(=O)(=O)C(C)(C)C(=N)N2)cn1 [Example C-23]
20 nM | 72 nM | C#CCOc1cnc(C(=O)Nc2ccc3c(c2)[C@]2(COC3)CS(=O)(=O)C(C)(C)C(=N)N2)cn1 [Example E-4]
334 nM | 187 nM | COc1cnc(C(=O)Nc2ccc3c(c2)[C@]2(COC3)CS(=O)(=O)C(C)(C)C(=N)N2)cn1 [Example E-22]
57 nM | 163 nM | CC1(C)C(=N)N[C@@]2(CCCc3ccc(NC(=O)c4cnc(C(F)(F)F)cn4)cc32)CS1(=O)=O [Example G-12]
37 nM | 5 nM | CC1(C)C(=N)N[C@@]2(COCc3ccc(NC(=O)c4ncc(Cl)cc4F)cc32)CS1(=O)=O [Example E-15]
40 nM | 20 nM | COc1cnc(C(=O)Nc2ccc3c(c2)[C@]2(CCO3)CS(=O)(=O)C(C)(C)C(=N)N2)c(C)n1 [Example C-21]
118 nM | 29 nM | COc1ccc(C(=O)Nc2ccc3c(c2)[C@]2(COC3)CS(=O)(=O)C(C)(C)C(=N)N2)nc1 [Example E-10]
